Experimental data reported in US9096559B2, “4-carboxybenzylamino derivatives as histone deacetylase inhibitors” (Merck Sharp & Dohme Corp., priority 2007, dated 2015).

Tests used:
[1] = system: human cervical cancer (HeLa) and colon carcinoma (HCT116) cells; assay: ATP (Vialight) cell proliferation assay, 72 hr; type: cell-based; conditions: IP = inflection point, cell line not given, read-out: Prol-72 hr IP (inflection point)
Description: The novel compounds of the present invention were tested for their ability to inhibit proliferation of the human cervical cancer (HeLa) and colon carcinoma (HCT116) cells.
In this assay, also referred to as the Vialight Assay, cellular ATP levels are measured as a means of quantifying cellular proliferation. This assay makes use of a bioluminescent method from Cambrex (ViaLight PLUS, cat. #LT07-121). In the presence of ATP, luciferase converts luciferin to oxyluciferin and light. The amount of light produced (emission at 565 nm) is measured and correlates with a relative amount of proliferation. Human cervical cancer (HeLa) or colon carcinoma (HCT116) cells were incubated with vehicle or increasing concentrations of compound for 48, 72 or 96 hours. Cell proliferation was quantified by adding the cell lysis reagent (provided in the Vialight assay kit) directly to culture wells, followed by addition of the ATP-monitoring reagent (containing luciferase/luciferin). The amount of light produced is then measured (emission at 565 nm). The quantity of light produced, as measured by […], is directly proportional to the number of living cells in culture.

[2] = molecular target: histone deacetylase, subtype 1 (HDAC1) (Homo sapiens (Human), UniProt Q13547); assay: HDAC1-Flag in vitro deacetylation assay; type: biochemical; conditions: IP = inflection point; read-out: HDAC1 IP (inflection point)
Description: Novel compounds were tested for their ability to inhibit histone deacetylase, subtype 1 (HDAC1) using an in vitro deacetylation assay. The enzyme source for this assay was an epitope-tagged human HDAC1 complex immuno-purified from stably expressing mammalian cells. The substrate consisted of a commercial product containing an acetylated lysine side chain (BIOMOL Research Laboratories, Inc., Plymouth Meeting, Pa.). Upon deacetylation of the substrate by incubation with the purified HDAC1 complex, a fluorophore is produced that is directly proportional to the level of deacetylation.

histone deacetylase, subtype 1 (HDAC1), sequence (Q13547 whole entry): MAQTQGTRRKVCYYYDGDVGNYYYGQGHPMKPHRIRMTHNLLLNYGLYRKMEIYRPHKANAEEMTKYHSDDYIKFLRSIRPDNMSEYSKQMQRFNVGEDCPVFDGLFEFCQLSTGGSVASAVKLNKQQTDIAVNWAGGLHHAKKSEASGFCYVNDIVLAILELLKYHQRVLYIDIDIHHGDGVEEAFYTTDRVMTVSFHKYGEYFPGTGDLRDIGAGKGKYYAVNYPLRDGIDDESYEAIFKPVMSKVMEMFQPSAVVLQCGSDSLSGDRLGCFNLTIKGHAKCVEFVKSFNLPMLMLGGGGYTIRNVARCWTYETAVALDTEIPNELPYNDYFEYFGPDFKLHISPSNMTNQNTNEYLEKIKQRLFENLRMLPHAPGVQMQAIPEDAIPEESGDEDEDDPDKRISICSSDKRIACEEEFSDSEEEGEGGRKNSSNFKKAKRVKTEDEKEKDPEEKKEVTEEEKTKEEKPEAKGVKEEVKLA

Row | Structure (SMILES) | IC50 [1] [nM] | IC50 [2] [nM]
1 | Nc1ccc(-c2ccccc2)cc1NC(=O)c1ccc(CNC(=O)Cc2ccncc2)cc1 [Example 52, N-(4-aminobiphenyl-3-yl)-4-{[(pyridin-4-ylacetyl)amino]methyl}benzamide] | 250 | 15
2 | CCOC(=O)NCc1ccc(C(=O)Nc2cc(-c3cccs3)ccc2N)cc1 [Example 16, ethyl {[4-({[2-amino-5-(2-thienyl)phenyl]amino}carbonyl)phenyl]methyl}carbamate] | 130 | 12
3 | Nc1ccc(-c2ccccc2)cc1NC(=O)c1ccc(CNC(=O)OCc2ccccn2)cc1 [Example 59, pyridin-2-ylmethyl[(4-{[(4-aminobiphenyl-3-yl)amino]carbonyl}phenyl)methyl]carbamate] | 440 | 20
4 | COCC(C)NCc1ccc(C(=O)Nc2cc(-c3ccccc3)ccc2N)cc1 (centres unmarked) [Example 66, N-(4-amino-3-biphenylyl)-4-{[(2-methoxy-1-methylethyl)amino]methyl}benzamide] | 1100 | 23
5 | CC(C)OC(=O)NCc1ccc(C(=O)Nc2cc(-c3cccs3)ccc2N)cc1 [Example 18, 1-methylethyl {[4-({[2-amino-5-(2-thienyl)phenyl]amino}carbonyl)phenyl]methyl}carbamate] | 120 | 19
6 | CC(C)CC(=O)NCc1ccc(C(=O)Nc2cc(-c3cccs3)ccc2N)cc1 [Example 42, N-[2-amino-5-(2-thienyl)phenyl]-4-{[(3-methylbutanoyl)amino]methyl}benzamide] | 120 | 15
7 | COC(=O)NCc1ccc(C(=O)Nc2cc(-c3ccccc3)ccc2N)cc1 [Example 9, methyl[(4-{[(4-aminobiphenyl-3-yl)amino]carbonyl}phenyl)methyl]carbamate] | 260 | 17
8 | CN(C)S(=O)(=O)NCc1ccc(C(=O)Nc2cc(-c3cccs3)ccc2N)cc1 [Example 60, N-[2-amino-5-(2-thienyl)phenyl]-4-({[(dimethylamino)sulfonyl]amino}methyl)benzamide] | 260 | 17
9 | CCCOC(=O)NCc1ccc(C(=O)Nc2cc(-c3cccs3)ccc2N)cc1 [Example 19, propyl {[4-({[2-amino-5-(2-thienyl)phenyl]amino}carbonyl)phenyl]methyl}carbamate] | 110 | 19
10 | Nc1ccc(-c2ccccc2)cc1NC(=O)c1ccc(CN2C(=O)OC[C@@H]2c2ccccc2)cc1 [Example 118, N-(4-aminobiphenyl-3-yl)-4-{[(4S)-2-oxo-4-phenyl-1,3-oxazolidin-3-yl]methyl}benzamide] | 1400 | 64
11 | Nc1ccc(-c2ccccc2)cc1NC(=O)c1ccc(CNC(=O)CCc2cccnc2)cc1 [Example 53, N-(4-aminobiphenyl-3-yl)-4-{[(3-pyridin-3-ylpropanoyl)amino]methyl}benzamide] | 340 | 16
12 | Nc1ccc(-c2cccs2)cc1NC(=O)c1ccc(CN2C(=O)OC[C@H]2Cc2ccccc2)cc1 [Example 120, N-[2-amino-5-(2-thienyl)phenyl]-4-{[(4R)-2-oxo-4-(phenylmethyl)-1,3-oxazolidin-3-yl]methyl}benzamide] | 920 | 84
13 | Nc1ccc(-c2ccccc2)cc1NC(=O)c1ccc(CNC(=O)C2CCCC2)cc1 [Example 33, N-(4-aminobiphenyl-3-yl)-4-{[(cyclopentylcarbonyl)amino]methyl}benzamide] | 200 | 21
14 | Nc1ccc(-c2ccccc2)cc1NC(=O)c1ccc(CNc2ccncc2)cc1 [Example 61, N-(4-amino-3-biphenylyl)-4-[(4-pyridinylamino)methyl]benzamide] | 1700 | 10
15 | Nc1ccc(-c2cccs2)cc1NC(=O)c1ccc(CNC(=O)Cc2ccccc2)cc1 [Example 47, N-[2-amino-5-(2-thienyl)phenyl]-4-{[(phenylacetyl)amino]methyl}benzamide] | 150 | 16
16 | O=C(NCc1ccc(C(=O)Nc2cc(-c3cccnc3)ccc2O)cc1)OCc1cccnc1 [Example 6, pyridin-3-ylmethyl[(4-{[(2-hydroxy-5-pyridin-3-ylphenyl)amino]carbonyl}phenyl)methyl]carbamate] | 1000 | 16
17 | CC(C)(C)C(=O)NCc1ccc(C(=O)Nc2cc(-c3ccccc3)ccc2N)cc1 [Example 28, N-(4-aminobiphenyl-3-yl)-4-{[(2,2-dimethylpropanoyl)amino]methyl}benzamide] | 260 | 25
18 | Nc1ccc(-c2cccs2)cc1NC(=O)c1ccc(CNC(=O)C2CC2)cc1 [Example 39, N-[2-amino-5-(2-thienyl)phenyl]-4-{[(cyclopropylcarbonyl)amino]methyl}benzamide] | 96 | 15

Row | Structure (SMILES) | IC50 [1] [nM] | IC50 [2] [nM]
19 | Nc1ccc(-c2cccs2)cc1NC(=O)c1ccc(CNCC(=O)O)cc1 [Example 124, {[4-({[2-amino-5-(2-thienyl)phenyl]amino}carbonyl)benzyl]amino}acetic acid] | > 20000 | 34
20 | Nc1ccc(-c2ccccc2)cc1NC(=O)c1ccc(CNC(=O)Oc2ccccc2)cc1 [Example 14, phenyl[(4-{[(4-aminobiphenyl-3-yl)amino]carbonyl}phenyl)methyl]carbamate] | 1400 | 320
21 | CCC(=O)NCc1ccc(C(=O)Nc2cc(-c3ccccc3)ccc2N)cc1 [Example 24, N-(4-aminobiphenyl-3-yl)-4-[(propanoylamino)methyl]benzamide] | 120 | 17
22 | Nc1ccc(-c2ccccc2)cc1NC(=O)c1ccc(CNC(=O)OCc2cccnc2)cc1 [Example 1, Pyridin-3-ylmethyl[(4-{[(4-aminobiphenyl-3-yl)amino]carbonyl}phenyl)methyl]carbamate] | 380 | –
23 | Nc1ccc(-c2ccccc2)cc1NC(=O)c1ccc(CNC(=O)Cc2ccccn2)cc1 [Example 50, N-(4-aminobiphenyl-3-yl)-4-{[(pyridin-2-ylacetyl)amino]methyl}benzamide] | 300 | 19
24 | CCC(=O)NCc1ccc(C(=O)Nc2cc(-c3cccs3)ccc2N)cc1 [Example 37, N-[2-amino-5-(2-thienyl)phenyl]-4-[(propanoylamino)methyl]benzamide] | 130 | 12
25 | CC(C)OC(=O)NCc1ccc(C(=O)Nc2cc(-c3ccccc3)ccc2N)cc1 [Example 11, 1-methylethyl[(4-{[(4-aminobiphenyl-3-yl)amino]carbonyl}phenyl)methyl]carbamate] | 130 | –
26 | Nc1ccc(-c2cccs2)cc1NC(=O)c1ccc(CNC(=O)C2CCCCC2)cc1 [Example 45, N-[2-amino-5-(2-thienyl)phenyl]-4-{[(cyclohexylcarbonyl)amino]methyl}benzamide] | 190 | –
27 | Nc1ccc(-c2ccccc2)cc1NC(=O)c1ccc(CNC(=O)OCc2ccccc2)cc1 [Example 15, phenylmethyl[(4-{[(4-aminobiphenyl-3-yl)amino]carbonyl}phenyl)methyl]carbamate] | 820 | –
28 | CN1CCC(CN(C)Cc2ccc(C(=O)Nc3cc(-c4ccccc4)ccc3O)cc2)CC1 [Example 115, N-(4-hydroxy-3-biphenylyl)-4-({methyl[(1-methyl-4-piperidinyl)methyl]amino}methyl)benzamide] | – | 78
29 | CN1CCN(Cc2ccc(C(=O)Nc3cc(-c4ccccc4)ccc3O)cc2)CC1 [Example 100, N-(4-hydroxy-3-biphenylyl)-4-[(4-methyl-1-piperazinyl)methyl]benzamide] | – | 2400
30 | O=C(Nc1cc(-c2ccccc2)ccc1O)c1ccc(CN2CCNCC2)cc1 [Example 83, N-(4-hydroxy-3-biphenylyl)-4-(1-piperazinylmethyl)benzamide] | – | 65
31 | CNCCN(C)Cc1ccc(C(=O)Nc2cc(-c3ccccc3)ccc2O)cc1 [Example 101, N-(4-hydroxy-3-biphenylyl)-4-({methyl[2-(methylamino)ethyl]amino}methyl)benzamide] | – | 35
32 | O=C(Nc1cc(-c2ccccc2)ccc1O)c1ccc(CNCCOc2ccccc2)cc1 [Example 96, N-(4-hydroxy-3-biphenylyl)-4-{[(2-phenoxyethyl)amino]methyl}benzamide] | – | 360
33 | O=C(Nc1cc(-c2ccccc2)ccc1O)c1ccc(CNC2CCCC2)cc1 [Example 77, 4-[(cyclopentylamino)methyl]-N-(4-hydroxy-3-biphenylyl)benzamide] | – | 150
34 | CC(C)OCCCNCc1ccc(C(=O)Nc2cc(-c3ccccc3)ccc2O)cc1 [Example 86, N-(4-hydroxy-3-biphenylyl)-4-{[(3-isopropoxypropyl)amino]methyl}benzamide] | – | 95
35 | CN1CCC(CNCc2ccc(C(=O)Nc3cc(-c4ccccc4)ccc3O)cc2)C1 (centres unmarked) [Example 110] | – | 180
36 | O=C(Nc1cc(-c2ccccc2)ccc1O)c1ccc(CN2CCc3ccccc3C2)cc1 [Example 90, 4-(3,4-dihydro-2(1H)-isoquinolinylmethyl)-N-(4-hydroxy-3-biphenylyl)benzamide] | – | 250
